Assay results reported in ChEMBL document CHEMBL5724914, “Linking interpersonal differences in gut microbiota composition and drug biotransformation activity” (2024).

How the values were obtained:
[1] = (§1) The drug is tested on Z-028 corresponding to mouse gut metagenome with ENA study accession number: PRJEB37062 and ENA sample accession number: ERS12561827 for biotransformation under anaerobic condition. The drug concentrations were measured over 9 timepoints collected between 0 and 24 hours of incubation by liquid-chromatography-coupled mass spectrometry (LC–MS); details: 2 µM
[2] = as §1, with “Z-025” for “Z-028”, “rabbit” for “mouse”, “ERS12561824” for “ERS12561827”; details: 2 µM
[3] = as §1, with “Z-021” for “Z-028”, “to” for “to mouse gut”, “ERS12561820” for “ERS12561827”; details: 2 µM
[4] = as §1, with “Z-020” for “Z-028”, “rabbit” for “mouse”, “ERS12561819” for “ERS12561827”; details: 2 µM
[5] = as §1, with “Z-013” for “Z-028”, “rabbit” for “mouse”, “ERS12561813” for “ERS12561827”; details: 2 µM
[6] = as §1, with “Z-006” for “Z-028”, “ERS12561806” for “ERS12561827”; details: 2 µM
[7] = as §1, with “Z-003” for “Z-028”, “pig” for “mouse”, “ERS12561803” for “ERS12561827”; details: 2 µM
[8] = as §1, with “WLS-098” for “Z-028”, “human” for “mouse”, “ERS12561754” for “ERS12561827”; details: 2 µM
[9] = as §1, with “WLS-069” for “Z-028”, “human” for “mouse”, “ERS12561748” for “ERS12561827”; details: 2 µM
[10] = as §1, with “WLS-010” for “Z-028”, “human” for “mouse”, “ERS12561743” for “ERS12561827”; details: 2 µM
[11] = as §1, with “WLS-006” for “Z-028”, “human” for “mouse”, “ERS12561741” for “ERS12561827”; details: 2 µM
[12] = human gut metagenome, 24 h, 2 µM
[13] = human gut metagenome, 24 h, 2 µM; remark: listed apart in the source
[14] = human gut metagenome, 24 h, 2 µM; remark: listed apart in the source
[15] = human gut metagenome, 24 h, 2 µM; remark: listed apart in the source
[16] = human gut metagenome, 24 h, 2 µM; remark: listed apart in the source
[17] = human gut metagenome, 24 h, 2 µM; remark: listed apart in the source
[18] = human gut metagenome, 24 h, 2 µM; remark: listed apart in the source
[19] = human gut metagenome, 24 h, 2 µM; remark: listed apart in the source
[20] = human gut metagenome, 24 h, 2 µM; remark: listed apart in the source
Also: call rule not given here.

SMILES	Bacterial Biotransformation [1]	Bacterial Biotransformation [2]	Bacterial Biotransformation [3]	Bacterial Biotransformation [4]	Bacterial Biotransformation [5]	Bacterial Biotransformation [6]	Bacterial Biotransformation [7]	Bacterial Biotransformation [8]	Bacterial Biotransformation [9]	Bacterial Biotransformation [10]	Bacterial Biotransformation [11]	Bacterial Biotransformation [12]	Bacterial Biotransformation [13]	Bacterial Biotransformation [14]	Bacterial Biotransformation [15]	Bacterial Biotransformation [16]	Bacterial Biotransformation [17]	Bacterial Biotransformation [18]	Bacterial Biotransformation [19]	Bacterial Biotransformation [20]
O=c1[nH]c2ccccc2n1C1CCN(CCCC(c2ccc(F)cc2)c2ccc(F)cc2)CC1 [PIMOZIDE]	Compound NOT metabolized	Compound metabolized	Compound metabolized	Compound metabolized	Compound metabolized	Compound metabolized	Compound metabolized	Compound metabolized	Compound metabolized	Compound metabolized	Compound metabolized	Compound metabolized	Compound metabolized	Compound NOT metabolized	Compound metabolized	Compound metabolized	Compound metabolized	Compound metabolized	Compound NOT metabolized	Compound metabolized
CS(=O)(=O)O.OC(CCN1CCCCC1)(c1ccccc1)c1ccccc1 [PRIDINOL METHANESULFONATE]	Compound NOT metabolized	Compound NOT metabolized	Compound NOT metabolized	Compound NOT metabolized	Compound NOT metabolized	Compound NOT metabolized	Compound metabolized	Compound metabolized	Compound NOT metabolized	Compound NOT metabolized	Compound metabolized	Compound NOT metabolized	Compound NOT metabolized	Compound NOT metabolized	Compound NOT metabolized	Compound metabolized	Compound NOT metabolized	Compound NOT metabolized	Compound NOT metabolized	Compound metabolized
CC(CN1c2ccccc2Sc2ccccc21)N(C)C (stereo not given) [PROMETHAZINE]	Compound NOT metabolized	Compound metabolized	Compound NOT metabolized	Compound NOT metabolized	Compound NOT metabolized	Compound NOT metabolized	Compound NOT metabolized	Compound metabolized	Compound metabolized	Compound NOT metabolized	Compound metabolized	Compound metabolized	Compound metabolized	Compound NOT metabolized	Compound metabolized	Compound metabolized	Compound NOT metabolized	Compound NOT metabolized	Compound NOT metabolized	Compound metabolized
OCCOCCN1CCN(C2=Nc3ccccc3Sc3ccccc32)CC1 [QUETIAPINE]	Compound NOT metabolized	Compound metabolized	Compound NOT metabolized	Compound NOT metabolized	Compound NOT metabolized	Compound NOT metabolized	Compound NOT metabolized	Compound metabolized	Compound NOT metabolized	Compound NOT metabolized	Compound NOT metabolized	Compound NOT metabolized	Compound NOT metabolized	Compound NOT metabolized	Compound NOT metabolized	Compound metabolized	Compound NOT metabolized	Compound NOT metabolized	Compound NOT metabolized	Compound metabolized
CCC(=O)NCC[C@@H]1CCc2ccc3c(c21)CCO3 [RAMELTEON]	Compound NOT metabolized	Compound NOT metabolized	Compound metabolized	Compound metabolized	Compound metabolized	Compound metabolized	Compound metabolized	Compound metabolized	Compound metabolized	Compound metabolized	Compound metabolized	Compound metabolized	Compound metabolized	Compound metabolized	Compound metabolized	Compound metabolized	Compound metabolized	Compound metabolized	Compound metabolized	Compound metabolized
CNC(=C[N+](=O)[O-])NCCSCc1ccc(CN(C)C)o1 [RANITIDINE]	Compound metabolized	Compound NOT metabolized	Compound NOT metabolized	Compound metabolized	Compound NOT metabolized	Compound metabolized	Compound metabolized	Compound NOT metabolized	Compound metabolized	Compound NOT metabolized	Compound metabolized	Compound NOT metabolized	Compound NOT metabolized	Compound NOT metabolized	Compound NOT metabolized	Compound metabolized	Compound metabolized	Compound metabolized	Compound NOT metabolized	Compound metabolized
Nc1nc2ccc(OC(F)(F)F)cc2s1 [RILUZOLE]	Compound NOT metabolized	Compound NOT metabolized	Compound metabolized	Compound metabolized	Compound NOT metabolized	Compound NOT metabolized	Compound metabolized	Compound metabolized	Compound metabolized	Compound metabolized	Compound metabolized	Compound metabolized	Compound NOT metabolized	Compound NOT metabolized	Compound NOT metabolized	Compound metabolized	Compound NOT metabolized	Compound NOT metabolized	Compound metabolized	Compound metabolized
CC(C)c1nc(CN(C)C(=O)N[C@H](C(=O)N[C@@H](Cc2ccccc2)C[C@H](O)[C@H](Cc2ccccc2)NC(=O)OCc2cncs2)C(C)C)cs1 [RITONAVIR]	Compound metabolized	Compound metabolized	Compound NOT metabolized	Compound metabolized	Compound metabolized	Compound metabolized	Compound metabolized	Compound metabolized	Compound metabolized	Compound metabolized	Compound metabolized	Compound NOT metabolized	Compound NOT metabolized	Compound NOT metabolized	Compound NOT metabolized	Compound metabolized	Compound NOT metabolized	Compound NOT metabolized	Compound metabolized	Compound metabolized
